Reference: PubChem BioAssay AID256 (DTP/NCI, 2004)
Several values for one entry are separate records, joined by “and”; a condition that tells them apart may be missing. Equal values may be shown once. Inconclusive results and toxic doses are left out.

Test system: CD2F1 mice, L1210 leukemia ip, survival T/C
Test: NCI In Vivo Anticancer Drug Screen. Data for tumor model L1210 Leukemia (intraperitoneal) in CD2F1 (CDF1) mice
Conditions: higher = longer survival
Outline: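 In this screen, transplantable tumors were grown in mice given either the compound or its vehicle. Results were expressed as the treated measurement relative to the control measurement.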

[1] = endpoint: mean survival time, dose: 50.0 mg/kg/injection, schedule: Q04DX002 (ip), vehicle: saline with Tween-80
[2] = endpoint: mean survival time, dose: 100.0 mg/kg/injection, schedule: Q04DX002 (ip), vehicle: saline with Tween-80
[3] = endpoint: mean survival time, dose: 200.0 mg/kg/injection, schedule: Q04DX002 (ip), vehicle: saline with Tween-80
[4] = endpoint: mean survival time, dose: 100.0 mg/kg/injection, schedule: Q01DX001 (ip), vehicle: carboxymethylcellulose (CMC)
[5] = endpoint: mean survival time, dose: 200.0 mg/kg/injection, schedule: Q01DX001 (ip), vehicle: carboxymethylcellulose (CMC)
[6] = endpoint: mean survival time, dose: 400.0 mg/kg/injection, schedule: Q01DX001 (ip), vehicle: carboxymethylcellulose (CMC)
[7] = endpoint: mean survival time, dose: 100.0 mg/kg/injection, schedule: Q01DX009 (ip), vehicle: saline with Tween-80
[8] = endpoint: mean survival time, dose: 100.0 mg/kg/injection, schedule: Q04DX003 (ip), vehicle: saline with Tween-80
[9] = endpoint: mean survival time, dose: 200.0 mg/kg/injection, schedule: Q01DX009 (ip), vehicle: saline with Tween-80
[10] = endpoint: mean survival time, dose: 200.0 mg/kg/injection, schedule: Q04DX003 (ip), vehicle: saline with Tween-80
[11] = endpoint: mean survival time, dose: 400.0 mg/kg/injection, schedule: Q01DX009 (ip), vehicle: saline with Tween-80
[12] = endpoint: mean survival time, dose: 400.0 mg/kg/injection, schedule: Q04DX003 (ip), vehicle: saline with Tween-80
[13] = endpoint: mean survival time, dose: 25.0 mg/kg/injection, schedule: Q01DX009 (ip), vehicle: Klucel (hydroxypropylcellulose) (HPC)
[14] = endpoint: mean survival time, dose: 50.0 mg/kg/injection, schedule: Q01DX009 (ip), vehicle: Klucel (hydroxypropylcellulose) (HPC)
[15] = endpoint: mean survival time, dose: 75.0 mg/kg/injection, schedule: Q01DX001 (ip), vehicle: other
[16] = endpoint: mean survival time, dose: 150.0 mg/kg/injection, schedule: Q01DX001 (ip), vehicle: other
[17] = endpoint: mean survival time, dose: 25.0 mg/kg/injection, schedule: Q01DX009 (ip), vehicle: saline with Tween-80
[18] = endpoint: mean survival time, dose: 50.0 mg/kg/injection, schedule: Q01DX009 (ip), vehicle: saline with Tween-80
[19] = endpoint: mean survival time, dose: 100.0 mg/kg/injection, schedule: Q01DX001 (ip), vehicle: saline
[20] = endpoint: mean survival time, dose: 100.0 mg/kg/injection, schedule: Q01DX009 (ip), vehicle: Klucel (hydroxypropylcellulose) (HPC)
[21] = endpoint: mean survival time, dose: 100.0 mg/kg/injection, schedule: Q04DX003 (ip), vehicle: Klucel (hydroxypropylcellulose) (HPC)
[22] = endpoint: mean survival time, dose: 200.0 mg/kg/injection, schedule: Q04DX003 (ip), vehicle: Klucel (hydroxypropylcellulose) (HPC)
[23] = endpoint: mean survival time, dose: 400.0 mg/kg/injection, schedule: Q04DX003 (ip), vehicle: Klucel (hydroxypropylcellulose) (HPC)

## CC1=C(N)C(=O)N(C)C1=O
endpoint: mean survival time, dose: 25.0 mg/kg/injection, schedule: Q04DX002 (ip), vehicle: saline with Tween-80
  T/C: 98 % of control
[1]
  T/C: 95 % of control
[2]
  T/C: 98 % of control
[3]
  T/C: 98 % of control

## CCOC(=O)Nc1cc(N)c2n[nH]nc2n1
[4]
  T/C: 100 % of control
[5]
  T/C: 98 % of control
[6]
  T/C: 102 % of control

## CN(C)C1c2ccccc2-c2ccc([N+](=O)[O-])cc21 (stereo not given)
endpoint: mean survival time, dose: 50.0 mg/kg/injection, schedule: Q01DX001 (ip), vehicle: carboxymethylcellulose (CMC)
  T/C: 107 % of control
[4]
  T/C: 101 % of control
[5]
  T/C: 101 % of control
[6]
  T/C: 101 % of control

## Cc1ccc(S(=O)(=O)OC2C(COCC(=O)O)OC3OC(C)(C)OC32)cc1 (stereo not given)
[7]
  T/C: 95 % of control
[8]
  T/C: 98 % of control
[9]
  T/C: 93 % of control
[10]
  T/C: 101 % of control
[11]
  T/C: 90 % of control
[12]
  T/C: 93 % of control

## Nc1nc2ncccc2[nH]1
endpoint: mean survival time, dose: 12.5 mg/kg/injection, schedule: Q01DX005 (ip), vehicle: other
  T/C: 108 % of control
endpoint: mean survival time, dose: 25.0 mg/kg/injection, schedule: Q01DX005 (ip), vehicle: other
  T/C: 107 % of control
endpoint: mean survival time, dose: 50.0 mg/kg/injection, schedule: Q01DX005 (ip), vehicle: other
  T/C: 104 % of control
endpoint: mean survival time, dose: 100.0 mg/kg/injection, schedule: Q01DX005 (ip), vehicle: other
  T/C: 101 % of control
endpoint: mean survival time, dose: 200.0 mg/kg/injection, schedule: Q01DX005 (ip), vehicle: other
  T/C: 103 % of control

## CSC(=C[N+](=O)[O-])SC
[13]
  T/C: 97 % of control
[14]
  T/C: 106 % of control

## C=CCCCCCCCCC(=O)NN1CCOCC1
[7]
  T/C: 94 % of control
[9]
  T/C: 91 % of control
[11]
  T/C: 94 % of control

## CCOC(=O)CC1(O)CCCCC1
[7]
  T/C: 101 % of control
[8]
  T/C: 100 % of control
[9]
  T/C: 101 % of control
[10]
  T/C: 101 % of control
[11]
  T/C: 100 % of control
[12]
  T/C: 97 % of control

## COC(=O)c1ccc(N(C)C/C(CN2C(=O)c3ccccc3C2=O)=N\O)cc1
[15]
  T/C: 92 % of control
[16]
  T/C: 106 % of control

## O=[N+]([O-])c1c(Br)sc(Br)c1[N+](=O)[O-]
endpoint: mean survival time, dose: 12.5 mg/kg/injection, schedule: Q01DX009 (ip), vehicle: saline with Tween-80
  T/C: 97 % of control
endpoint: mean survival time, dose: 12.5 mg/kg/injection, schedule: Q04DX003 (ip), vehicle: saline with Tween-80
  T/C: 101 % of control
[17]
  T/C: 88 % of control
endpoint: mean survival time, dose: 25.0 mg/kg/injection, schedule: Q04DX003 (ip), vehicle: saline with Tween-80
  T/C: 103 % of control
[18]
  T/C: 95 % of control
endpoint: mean survival time, dose: 50.0 mg/kg/injection, schedule: Q04DX003 (ip), vehicle: saline with Tween-80
  T/C: 109 % of control

## COc1ccc(C(OC(=O)Oc2ccccc2)c2ccccc2)cc1 (stereo not given)
endpoint: mean survival time, dose: 100.0 mg/kg/injection, schedule: Q04DX002 (ip), vehicle: other
  T/C: 93 % of control
endpoint: mean survival time, dose: 200.0 mg/kg/injection, schedule: Q04DX002 (ip), vehicle: other
  T/C: 96 % of control
endpoint: mean survival time, dose: 400.0 mg/kg/injection, schedule: Q04DX002 (ip), vehicle: other
  T/C: 96 % of control

## NC(=S)c1cccc(OCCOc2cccc3ccccc23)c1
[17]
  T/C: 92 % of control
[18]
  T/C: 95 % of control
[7]
  T/C: 88 % of control

## CC(=O)OCCC/C(=C\c1ccc(Cl)c(Cl)c1)[N+](=O)[O-]
[19]
  T/C: 100 % of control

## CC1C(=O)CC(C)(C)C=CC1C1C=CC(C)(C)CC(=O)C1C (stereo not given)
[15]
  T/C: 97 % of control
[16]
  T/C: 97 % of control
endpoint: mean survival time, dose: 300.0 mg/kg/injection, schedule: Q01DX001 (ip), vehicle: other
  T/C: 96 % of control

## O=C(O)c1cc(C(=O)O)cc(S(=O)(=O)O)c1.[NH-]C1CCCCC1[NH-].[Pt+2]
endpoint: median survival time, dose: 3.12 mg/kg/injection, schedule: Q04DX003 (ip), vehicle: saline
  T/C: 121 % of control and 103 % of control
endpoint: median survival time, dose: 12.5 mg/kg/injection, schedule: Q04DX003 (ip), vehicle: saline
  T/C: 168 % of control
endpoint: median survival time, dose: 25.0 mg/kg/injection, schedule: Q04DX003 (ip), vehicle: saline
  T/C: 176 % of control
endpoint: median survival time, dose: 50.0 mg/kg/injection, schedule: Q04DX003 (ip), vehicle: saline
  T/C: 235 % of control and 350 % of control
endpoint: median survival time, dose: 100.0 mg/kg/injection, schedule: Q04DX003 (ip), vehicle: saline
  T/C: 188 % of control

## CCS(=O)(=O)C1(S(=O)(=O)CC)CCCCC1
[19]
  T/C: 102 % of control
endpoint: mean survival time, dose: 200.0 mg/kg/injection, schedule: Q01DX001 (ip), vehicle: saline
  T/C: 102 % of control
endpoint: mean survival time, dose: 400.0 mg/kg/injection, schedule: Q01DX001 (ip), vehicle: saline
  T/C: 102 % of control

## Cc1ccc[n+](CC(O)c2ccc(C(O)C[n+]3cccc(C)c3)cc2)c1 (stereo not given)
endpoint: mean survival time, dose: 0.08 mg/kg/injection, schedule: Q04DX003 (ip), vehicle: saline
  T/C: 101 % of control
endpoint: mean survival time, dose: 0.15 mg/kg/injection, schedule: Q04DX003 (ip), vehicle: saline
  T/C: 101 % of control

## CN=NC1(OC(C)=O)CCCC1
endpoint: mean survival time, dose: 3.12 mg/kg/injection, schedule: Q01DX009 (ip), vehicle: saline
  T/C: 109 % of control
endpoint: mean survival time, dose: 6.25 mg/kg/injection, schedule: Q01DX009 (ip), vehicle: saline
  T/C: 111 % of control
endpoint: mean survival time, dose: 12.5 mg/kg/injection, schedule: Q01DX009 (ip), vehicle: saline
  T/C: 118 % of control and 121 % of control
endpoint: mean survival time, dose: 25.0 mg/kg/injection, schedule: Q01DX009 (ip), vehicle: saline
  T/C: 105 % of control

## Nc1nc2c(ncn2-c2cccc(NC(=O)c3cccc(S(=O)(=O)F)c3)c2)c(=O)[nH]1
[1]
  T/C: 108 % of control
[2]
  T/C: 94 % of control
[3]
  T/C: 90 % of control

## C1CC2CCCN2C1
endpoint: mean survival time, dose: 12.5 mg/kg/injection, schedule: Q04DX003 (ip), vehicle: acetone
  T/C: 96 % of control
endpoint: mean survival time, dose: 25.0 mg/kg/injection, schedule: Q04DX003 (ip), vehicle: acetone
  T/C: 102 % of control
endpoint: mean survival time, dose: 50.0 mg/kg/injection, schedule: Q04DX003 (ip), vehicle: acetone
  T/C: 97 % of control

## Cc1cc(NC(=O)Nc2cc(F)ccc2F)no1
[13]
  T/C: 101 % of control
[14]
  T/C: 103 % of control
[20]
  T/C: 101 % of control

## Cc1ccc(C#N)cn1
[7]
  T/C: 101 % of control
endpoint: mean survival time, dose: 100.0 mg/kg/injection, schedule: Q04DX003 (ip), vehicle: saline sonified
  T/C: 96 % of control
[9]
  T/C: 97 % of control
endpoint: mean survival time, dose: 200.0 mg/kg/injection, schedule: Q04DX003 (ip), vehicle: saline sonified
  T/C: 96 % of control
[11]
  T/C: 90 % of control
endpoint: mean survival time, dose: 400.0 mg/kg/injection, schedule: Q04DX003 (ip), vehicle: saline sonified
  T/C: 89 % of control

## O=C(N/N=C/c1ccccc1)c1ccccc1O
[20]
  T/C: 96 % of control
[21]
  T/C: 100 % of control
endpoint: mean survival time, dose: 200.0 mg/kg/injection, schedule: Q01DX009 (ip), vehicle: Klucel (hydroxypropylcellulose) (HPC)
  T/C: 97 % of control
[22]
  T/C: 94 % of control
endpoint: mean survival time, dose: 400.0 mg/kg/injection, schedule: Q01DX009 (ip), vehicle: Klucel (hydroxypropylcellulose) (HPC)
  T/C: 94 % of control
[23]
  T/C: 94 % of control

## COc1ccc(/C=C\[N+](=O)[O-])cc1OC
[21]
  T/C: 101 % of control
[22]
  T/C: 104 % of control
[23]
  T/C: 101 % of control

## CC(C)C(C)OC(=O)Nc1cccc(O)c1 (stereo not given)
[8]
  T/C: 99 % of control
[10]
  T/C: 97 % of control
[12]
  T/C: 97 % of control

## CCSCCCCO
endpoint: mean survival time, dose: 75.0 mg/kg/injection, schedule: Q04DX003 (ip), vehicle: saline
  T/C: 97 % of control
endpoint: mean survival time, dose: 150.0 mg/kg/injection, schedule: Q04DX003 (ip), vehicle: saline
  T/C: 103 % of control
endpoint: mean survival time, dose: 300.0 mg/kg/injection, schedule: Q04DX003 (ip), vehicle: saline
  T/C: 98 % of control
